Experimental data as given in US20220133753A1, “COMPOSITIONS AND METHODS USEFUL FOR TREATING DISEASES CHARACTERIZED BY INSUFFICIENT PANTOTHENATE KINASE ACTIVITY” (Comet Therapeutics, Inc., priority 2016, published 2022).
Entries after “also recorded” stand apart in the source; their conditions may differ.

Assay: Mice CoA intravenous injection study
Assay type: in vivo, mouse
Details: i.v.
Protocol: Sample preparation for mass spectrometry and instrumental parameters: Samples were briefly washed with ice-cold PBS solution. Samples were then sonicated thoroughly in 100 μl ice-cold milliQ (MQ) water containing 50 mM Tris(2-carboxyethyl)phosphine hydrochloride. Subsequently 100 ul saturated ammonium sulfate was added to each sample and centrifuged for 20 min at 10° C., 16100 rcf to collect supernatant. To 150 μl of supernatant, 15 ul of ammonium hydroxide (12.5%) was added and 20 μl was injected for LC-MS (liquid chromatography-mass spectrometry) analysis. For mouse plasma analysis, 50 ul of MQ water containing 50 mM Tris (2-carboxyethyl)phosphine hydrochloride was added to 50 ul of plasma and processed further as mentioned above. Appropriate dilution series of standard CoA, PPanSH and PPanSH(D4) was processed similarly before analysis. […] The flow was maintained at 1 ml/min with optimized mobile phase gradient of MQ water (A), 200 mM NH4Ac in 95/5 MQ water/acetonitrile adjusted to pH 4.5 with acetic acid (B), and acetonitrile (C). The separated analytes were detected with positive mode mass spectrometry under unit resolution. […] The absolute concentration was finally calculated using linear regression analysis of respective standard compounds, except CoA(D4) which was estimated indirectly using CoA standards. […]

CC(C)(COP(=O)(O)OP(=O)(O)OC[C@H]1O[C@@H](n2cnc3c(N)ncnc32)[C@H](O)[C@@H]1OP(=O)(O)O)[C@@H](O)C(=O)NCCC(=O)NCCS [CoA, Coenzyme A]
conversion of injected CoA in plasma (30 minutes, HPLC): rapidly converted to 4′-phosphopantetheine
4′-phosphopantetheine in plasma after CoA injection (6 hrs, mass spectrometry): elevated levels of PpanSH; also recorded: still present
